# Results from ChEMBL document CHEMBL1201862, “PubChem BioAssay data set” (2004).
#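 1) Cells in 96-well plates. 2) Compound, 48 h, 5 concentrations. 3) Linear interpolation between surrounding doses. 4) Unreached endpoint = highest concentration. Abbreviation: GI50, concentration required for 50% inhibition of growth.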 Activity calls are given as the source filed them. Cut-off read from the data, not from the text of the source: active = GI50 up to about 1.1 µM and inactive = higher.
# Legend:
# Test in all cases: inhibition of tumour cell growth, NCI panel, 48 h
# A498 = tested on: A498
# PC-3 = tested on: PC-3
# OVCAR-8 = tested on: OVCAR-8
# ACHN = tested on: ACHN
# HOP-62 = tested on: HOP-62
# OVCAR-3 = tested on: OVCAR-3
# SN12C = tested on: SN12C
# HCC 2998 = tested on: HCC 2998
# MDA-MB-231 = tested on: MDA-MB-231
# UO-31 = tested on: UO-31
# NCI-H522 = tested on: NCI-H522
# IGROV-1 = tested on: IGROV-1
# HT-29 = tested on: HT-29
# TK-10 = tested on: TK-10
# NCI-H460 = tested on: NCI-H460
# SF-268 = tested on: SF-268
# A549 = tested on: A549
# MDA-N = tested on: MDA-N
# SF-539 = tested on: SF-539
# HCT-15 = tested on: HCT-15
# HOP-92 = tested on: HOP-92
# CCRF-CEM = tested on: CCRF-CEM
# UACC-257 = tested on: UACC-257
# K562 = tested on: K562
# SNB-19 = tested on: SNB-19
# NCI-H23 = tested on: NCI-H23
# BT-549 = tested on: BT-549
# MDA-MB-435 = tested on: MDA-MB-435
# NCI-H226 = tested on: NCI-H226
# CAKI-1 = tested on: CAKI-1
# RPMI-8226 = tested on: RPMI-8226
# HCT-116 = tested on: HCT-116
# Hs-578T = tested on: Hs-578T
# COLO 205 = tested on: COLO 205
# SF-295 = tested on: SF-295
# DU-145 = tested on: DU-145
# EKVX = tested on: EKVX
# SNB-75 = tested on: SNB-75
# SK-MEL-28 = tested on: SK-MEL-28
# MCF7 = tested on: MCF7
# SW-620 = tested on: SW-620
# RXF 393 = tested on: RXF 393
# OVCAR-4 = tested on: OVCAR-4
# U-251 = tested on: U-251
# Malme-3M = tested on: Malme-3M
# HL-60 = tested on: HL-60
# SK-MEL-5 = tested on: SK-MEL-5
# SR = tested on: SR
# LOX IMVI = tested on: LOX IMVI
# 786-0 = tested on: 786-0
# KM12 = tested on: KM12
# NCI/ADR-RES = tested on: NCI/ADR-RES
# OVCAR-5 = tested on: OVCAR-5
# MOLT-4 = tested on: MOLT-4
# M14 = tested on: M14
# SK-OV-3 = tested on: SK-OV-3
# UACC-62 = tested on: UACC-62
# T47D = tested on: T47D
# SK-MEL-2 = tested on: SK-MEL-2
compound,measurement,setting,value
Nc1nc(Cl)c(CO)c(NCC2(CO)CCC2)n1,GI50,A498,> 100 µM (inactive)
same,GI50,PC-3,88.7 µM (inactive)
same,GI50,OVCAR-8,> 100 µM (inactive)
same,GI50,ACHN,> 100 µM (inactive)
same,GI50,HOP-62,> 100 µM (inactive)
same,GI50,OVCAR-3,> 100 µM (inactive)
same,GI50,SN12C,> 100 µM (inactive)
same,GI50,HCC 2998,> 100 µM (inactive)
same,GI50,MDA-MB-231,> 100 µM (inactive)
same,GI50,UO-31,> 100 µM (inactive)
same,GI50,NCI-H522,> 100 µM (inactive)
same,GI50,IGROV-1,> 100 µM (inactive)
same,GI50,HT-29,> 100 µM (inactive)
same,GI50,TK-10,> 100 µM (inactive)
same,GI50,NCI-H460,> 100 µM (inactive)
same,GI50,SF-268,> 100 µM (inactive)
same,GI50,A549,> 100 µM (inactive)
same,GI50,MDA-N,> 100 µM (inactive)
same,GI50,SF-539,> 100 µM (inactive)
same,GI50,HCT-15,> 100 µM
same,GI50,HOP-92,> 100 µM (inactive)
same,GI50,CCRF-CEM,> 100 µM (inactive)
same,GI50,UACC-257,> 100 µM (inactive)
same,GI50,K562,> 100 µM (inactive)
same,GI50,SNB-19,94.2 µM (inactive)
same,GI50,NCI-H23,41.9 µM (inactive)
same,GI50,BT-549,> 100 µM (inactive)
same,GI50,MDA-MB-435,> 100 µM (inactive)
same,GI50,NCI-H226,> 100 µM (inactive)
same,GI50,CAKI-1,> 100 µM (inactive)
same,GI50,RPMI-8226,> 100 µM (inactive)
same,GI50,HCT-116,> 100 µM (inactive)
same,GI50,Hs-578T,> 100 µM (inactive)
same,GI50,COLO 205,> 100 µM (inactive)
same,GI50,SF-295,> 100 µM (inactive)
same,GI50,DU-145,> 100 µM (inactive)
same,GI50,EKVX,> 100 µM (inactive)
same,GI50,SNB-75,> 100 µM (inactive)
same,GI50,SK-MEL-28,> 100 µM (inactive)
same,GI50,MCF7,> 100 µM (inactive)
same,GI50,SW-620,> 100 µM (inactive)
same,GI50,RXF 393,> 100 µM (inactive)
same,GI50,OVCAR-4,> 100 µM (inactive)
same,GI50,U-251,> 100 µM (inactive)
same,GI50,Malme-3M,> 100 µM (inactive)
same,GI50,HL-60,> 100 µM (inactive)
same,GI50,SK-MEL-5,> 100 µM (inactive)
same,GI50,SR,> 100 µM (inactive)
same,GI50,LOX IMVI,> 100 µM (inactive)
same,GI50,786-0,> 100 µM (inactive)
same,GI50,KM12,75.7 µM (inactive)
same,GI50,NCI/ADR-RES,> 100 µM (inactive)
same,GI50,OVCAR-5,> 100 µM (inactive)
same,GI50,MOLT-4,> 100 µM (inactive)
O=C(O)Cc1ccc(Oc2nc3ccccc3nc2C(=O)O)cc1,GI50,A498,> 100 µM (inactive)
same,GI50,PC-3,> 100 µM (inactive)
same,GI50,OVCAR-8,> 100 µM (inactive)
same,GI50,ACHN,> 100 µM (inactive)
same,GI50,HOP-62,> 100 µM (inactive)
same,GI50,OVCAR-3,> 100 µM (inactive)
same,GI50,SN12C,> 100 µM (inactive)
same,GI50,M14,> 100 µM (inactive)
same,GI50,HCC 2998,> 100 µM (inactive)
same,GI50,MDA-MB-231,> 100 µM (inactive)
same,GI50,UO-31,> 100 µM (inactive)
same,GI50,NCI-H522,> 100 µM (inactive)
same,GI50,IGROV-1,> 100 µM (inactive)
same,GI50,HT-29,> 100 µM (inactive)
same,GI50,TK-10,> 100 µM (inactive)
same,GI50,NCI-H460,> 100 µM (inactive)
same,GI50,SF-268,> 100 µM (inactive)
same,GI50,A549,> 100 µM (inactive)
same,GI50,SK-OV-3,> 100 µM (inactive)
same,GI50,SF-539,> 100 µM (inactive)
same,GI50,HCT-15,> 100 µM
same,GI50,HOP-92,79.1 µM (inactive)
same,GI50,CCRF-CEM,> 100 µM (inactive)
same,GI50,UACC-257,> 100 µM (inactive)
same,GI50,K562,0.0849 µM (active)
same,GI50,SNB-19,> 100 µM (inactive)
same,GI50,NCI-H23,> 100 µM (inactive)
same,GI50,BT-549,> 100 µM (inactive)
same,GI50,MDA-MB-435,12.8 µM (inactive)
same,GI50,NCI-H226,> 100 µM (inactive)
same,GI50,CAKI-1,96.8 µM (inactive)
same,GI50,RPMI-8226,> 100 µM (inactive)
same,GI50,HCT-116,> 100 µM (inactive)
same,GI50,Hs-578T,> 100 µM (inactive)
same,GI50,COLO 205,> 100 µM (inactive)
same,GI50,SF-295,> 100 µM (inactive)
same,GI50,DU-145,> 100 µM (inactive)
same,GI50,EKVX,> 100 µM (inactive)
same,GI50,UACC-62,> 100 µM (inactive)
same,GI50,SNB-75,> 100 µM (inactive)
same,GI50,SK-MEL-28,> 100 µM (inactive)
same,GI50,MCF7,> 100 µM (inactive)
same,GI50,T47D,> 100 µM (inactive)
same,GI50,SW-620,> 100 µM (inactive)
same,GI50,OVCAR-4,> 100 µM (inactive)
same,GI50,U-251,> 100 µM (inactive)
same,GI50,HL-60,0.0305 µM (active)
same,GI50,SK-MEL-5,> 100 µM (inactive)
same,GI50,SR,0.0187 µM (active)
same,GI50,LOX IMVI,> 100 µM (inactive)
same,GI50,786-0,> 100 µM (inactive)
same,GI50,KM12,> 100 µM (inactive)
same,GI50,NCI/ADR-RES,> 100 µM (inactive)
same,GI50,SK-MEL-2,> 100 µM (inactive)
same,GI50,OVCAR-5,> 100 µM (inactive)
